Reference: US20250263385A1 (SANOFI, priority 2022, published 2025)

System: Human erythropoietin (hEPO) levels in sera
Test: Delivery of hEPO mRNA by intramuscular administration of lipid nanoparticles; serum hEPO by ELISA
Type: in vivo, Mouse (female BALB/cJ)
Settings: single IM injection of 0.1 μg hEPO mRNA LNP in 30 μL into right gastrocnemius, female BALB/cJ mice, cationic lipids in formulation 1, MC3 in formulation 2; for hEPO 6 Hr (ng/mL) Mean: 6 hours post dose; for hEPO 24 Hr (ng/mL) Mean: 24 hours post dose
Description: Lipid nanoparticle formulations of Table 3 were prepared by Process A. All of the lipid nanoparticle formulations comprised hEPO mRNA and the different lipids (Cationic Lipid: DMG-PEG2000: Cholesterol: DOPE/DSPC) in the mol % ratios specified in Table 3.
The cationic lipids of the present invention were evaluated with lipid nanoparticle formulation 1. MC3 was evaluated with lipid nanoparticle formulation 2, which is a typical MC3 formulation.
In summary, lipid screening studies were conducted with female BALB/cJ mice 6-8 weeks of age. Mice were dosed with 0.1 μg in 30 μL of LNPs by a single intramuscular (IM) injection into the gastrocnemius leg muscle. Blood samples were taken 6 and 24 hours post injection and hEPO levels were measured in the blood serum of the mice using an ELISA assay according to the manufacture's protocol. WO2022/099003 A1 also describes an in vivo assay for intramuscular administration (e.g. on page 46, paragraph [00206]).
Treatment Regimen: On Day 1, animals from Groups 1-13 were dosed via intramuscular injection while under light isoflurane anesthesia according to the study design table above. Animals in Groups 1-13 were injected with EPO mRNA LNPs in the right leg only. Group 1 animals received MC3 control. The cationic lipid MC3 is the current gold standard for in vivo delivery of e.g. siRNA (see WO2010/144740).
Interim Sample Collections: Interim whole blood (^˜50 μL) was collected by tail snip or saphenous vein at 6 and 24 hours post dose administration (±5%). Blood samples were collected into serum separator tubes, allowed to clot at room temperature for at least 10 minutes, centrifuged at ambient temperature at minimum 1000 g for 10 minutes and the serum was extracted. All serum samples were stored at nominally −70° C. until analysis hEPO by the Testing Facility. The results of the EPO analysis were included in the Data Submission.
Terminal Blood Collections: Whole blood was collected via cardiac puncture into serum separator tube, allowed to clot at room temperature for at least 10 minutes, centrifuged at ambient temperature at minimum 1000 g for 10 minutes and the serum was extracted. Serum samples were stored at nominally −70° C. until analyzed for hEPO by the Test Facility.
ELISA Assay: Human erythropoietin (hEPO) levels in sera samples were determined by ELISA kit (R&D systems, Cat #DEP-00) according to the manufactory instruction and the results were included in the Data Submission. The “shaker” protocol was used. The serum samples were diluted between 1:40 and 1:100.

Row | Compound | hEPO 6 Hr (ng/mL) Mean [ng/mL] | hEPO 24 Hr (ng/mL) Mean [ng/mL]
1 | CCCCOC(=O)CCCCCCC(O)CN(CCCSSCCN1CCN(CCOC(=O)CCCCN(CC(O)CCCCCCC(=O)OCC(CC)CC)CC(O)CCCCCCC(=O)OCC(CC)CC)CC1)CC(O)CCCCCCC(=O)OCCCC (centres unmarked) [Compound 6, Dibutyl 9,9′-((3-((2-(4-(2-((5-(bis(9-(2-ethylbutoxy)-2-hydroxy-9-oxononyl)amino)-pentanoyl)oxy)ethyl)piperazin-1-yl)ethyl)disulfaneyl)propyl)azanediyl)bis(8-hydroxynonanoate)] | 8.72 | 8.90
2 | CCCCOC(=O)CCCCCCC(O)CN(CCCCSSCCN1CCN(CCOC(=O)CCCCN(CC(O)CCCCCCC(=O)OCC(CC)CC)CC(O)CCCCCCC(=O)OCC(CC)CC)CC1)CC(O)CCCCCCC(=O)OCCCC (centres unmarked) [Compound 12] | 8.06 | 4.86
3 | CCC(CC)COC(=O)CCCCCCC(O)CN(CCCC(=O)OCCN1CCN(CCSSCCCN(CC(O)CCCCCCC(=O)OCCC(C)C)CC(O)CCCCCCC(=O)OCCC(C)C)CC1)CC(O)CCCCCCC(=O)OCC(CC)CC (centres unmarked) [Compound 29, Bis(2-ethylbutyl) 9,9′-((4-(2-(4-(2-((3-(bis(2-hydroxy-9-(isopentyloxy)-9-oxononyl)-amino)propyl)disulfaneyl)ethyl)piperazin-1-yl)ethoxy)-4-oxobutyl)azanediyl)bis(8-hydroxynonanoate)] | 10.01 | 4.93
4 | CCCCOC(=O)CCCCCCC(O)CN(CCCC(=O)OCCN1CCN(CCSSCCCN(CC(O)CCCCCCC(=O)OCC(CC)CC)CC(O)CCCCCCC(=O)OCC(CC)CC)CC1)CC(O)CCCCCCC(=O)OCCCC (centres unmarked) [Compound 42, Dibutyl 9,9′-((5-(2-(4-(2-((4-(bis(9-(2-ethylbutoxy)-2-hydroxy-9-oxononyl)amino)propyl)disulfaneyl)ethyl)piperazin-1-yl)ethoxy)-4-oxobutyl)azanediyl)bis(8-hydroxynonanoate)] | 9.07 | 3.06
5 | CCC(CC)COC(=O)CCCCCCC(O)CN(CCCSSCCN1CCN(CCOC(=O)CCCN(CC(O)CCCCC(=O)OCCC(C)C)CC(O)CCCCC(=O)OCCC(C)C)CC1)CC(O)CCCCCCC(=O)OCC(CC)CC (centres unmarked) [Compound 45, Bis(2-ethylbutyl) 9,9′-((3-((2-(4-(2-((4-(bis(2-hydroxy-7-(isopentyloxy)-7-oxoheptyl)amino)-butanoyl)oxy)ethyl)piperazin-1-yl)ethyl)disulfaneyl)propyl)azanediyl)bis(8-hydroxynonanoate)] | 8.33 | 3.99
6 | CCC(CC)COC(=O)CCCCCCC(O)CN(CCCSSCCN1CCN(CCOC(=O)CCCN(CC(O)CCCC(=O)OC(CC)CC)CC(O)CCCC(=O)OC(CC)CC)CC1)CC(O)CCCCCCC(=O)OCC(CC)CC (centres unmarked) [Compound 46, Bis(2-ethylbutyl) 9,9′-((3-((2-(4-(2-((4-(bis(2-hydroxy-6-oxo-6-(pentan-3-yloxy)hexyl)-amino)butanoyl)oxy)ethyl)piperazin-1-yl)ethyl)disulfaneyl)propyl)azanediyl)bis(8-hydroxynonanoate)] | 12.38 | 5.78
7 | CCC(CC)COC(=O)CCCCCCC(O)CN(CCCC(=O)OCCN1CCN(CCSSCCCCN(CC(O)CCCCC(=O)OCC(CC)CC)CC(O)CCCCC(=O)OCC(CC)CC)CC1)CC(O)CCCCCCC(=O)OCC(CC)CC (centres unmarked) [Compound 50, Bis(2-ethylbutyl) 9,9′-((4-(2-(4-(2-((4-(bis(7-(2-ethylbutoxy)-2-hydroxy-7-oxoheptyl)amino)-butyl)disulfaneyl)ethyl)piperazin-1-yl)ethoxy)-4-oxobutyl)azanediyl)bis(8-hydroxynonanoate)] | 14.94 | 8.87
8 | CCC(CC)COC(=O)CCCCCCC(O)CN(CCCCC(=O)OCCN1CCN(CCSSCCCCN(CC(O)CCCCC(=O)OCC(CC)CC)CC(O)CCCCC(=O)OCC(CC)CC)CC1)CC(O)CCCCCCC(=O)OCC(CC)CC (centres unmarked) [Compound 51, Bis(2-ethylbutyl) 9,9′-((5-(2-(4-(2-((4-(bis(7-(2-ethylbutoxy)-2-hydroxy-7-oxoheptyl)amino)-butyl)disulfaneyl)ethyl)piperazin-1-yl)ethoxy)-5-oxopentyl)azanediyl)bis(8-hydroxynonanoate)] | 16.39 | 9.03
9 | CCCCOC(=O)CCCCCCC(O)CN(CCCCC(=O)OCCN1CCN(CCSSCCCCN(CC(O)CCCCCCC(=O)OCC(CC)CC)CC(O)CCCCCCC(=O)OCC(CC)CC)CC1)CC(O)CCCCCCC(=O)OCCCC (centres unmarked) [Compound 53, Dibutyl 9,9′-((5-(2-(4-(2-((4-(bis(9-(2-ethylbutoxy)-2-hydroxy-9-oxononyl)amino)-butyl)disulfaneyl)ethyl)piperazin-1-yl)ethoxy)-5-oxopentyl)azanediyl)bis(8-hydroxynonanoate)] | 9.07 | 4.66
10 | CCC(CC)COC(=O)CCCCCCC(O)CN(CCCCSSCCN1CCN(CCOC(=O)CCCN(CC(O)CCCCC(=O)OCC(CC)CC)CC(O)CCCCC(=O)OCC(CC)CC)CC1)CC(O)CCCCCCC(=O)OCC(CC)CC (centres unmarked) [Compound 57, Bis(2-ethylbutyl) 9,9′-((4-((2-(4-(2-((4-(bis(7-(2-ethylbutoxy)-2-hydroxy-7-oxoheptyl)amino)butanoyl)oxy)ethyl)piperazin-1-yl)ethyl)disulfaneyl)butyl)azanediyl)bis(8-hydroxynonanoate)] | 13.33 | 8.19
11 | CCCCOC(=O)CCCCCCC(O)CN(CCCCC(=O)OCCN1CCN(CCSSCCCN(CC(O)CCCCC(=O)OC(C)C)CC(O)CCCCC(=O)OC(C)C)CC1)CC(O)CCCCCCC(=O)OCCCC (centres unmarked) [Compound 78] | 7.05 | 3.30
12 | CCC(CC)COC(=O)CCCCC(O)CN(CCCSSCCN1CCN(CCOC(=O)CCCN(CC(O)CCCCC(=O)OCC(CC)CC)CC(O)CCCCC(=O)OCC(CC)CC)CC1)CC(O)CCCCC(=O)OCC(CC)CC (centres unmarked) [Compound 92, Bis(2-ethylbutyl) 7,7′-((3-((2-(4-(2-((4-(bis(7-(2-ethylbutoxy)-2-hydroxy-7-oxoheptyl)amino)butanoyl)oxy)ethyl)piperazin-1-yl)ethyl)disulfaneyl)propyl)azanediyl)bis(6-hydroxyheptanoate)] | 13.11 | 5.75
13 | CCCCC/C=C\C/C=C\CCCCCCCCC(CCCCCCCC/C=C\C/C=C\CCCCC)OC(=O)CCCN(C)C [MC3, reference compound] | 3.94 | 2.44
